Experimental data from patent publication US20260248799A1, “COMBINATIONS OF RETINALDEHYDE DEHYDROGENASE 1 (RALDH1) INHIBITORS AND IMMUNOSTIMULATORS AND METHODS USING SAME” (The Trustees of the University of Pennsylvania, priority 2023, published 2026).

Key:
[1] = system: murine monocytes from bone marrow; experiment: Murine monocyte DC differentiation with SNU398 cells or conditioned media; type: cell-based, mouse; settings: HCC cells pre-treated
From the text: (§1) FIGS. 22A-22E: RALDH1 inhibition blocks RA-mediated effects of HCC on monocyte differentiation. FIGS. 22A-22B: Circulating primary human monocytes from donors (FIG. 22A) or murine monocytes from bone marrow (FIG. 22B) were cocultured with SNU398 (Human HCC) cells or treated with SNU398-conditioned media (CM) in a DC differentiation system (GM-CSF and IL-4). Two-color histograms show the frequencies of DCs (CD11c^+CD1a^+ for human and CD11c^+MHCII^+ for mouse). The presence of SNU398 or its CM suppressed DC differentiation, which is reversed when SNU398 cells are treated with C86. Three or more independent experiments were performed with at least three replicates per experimental group. Unpaired t test, two-tailed. FIG. 22C: Huh7 (human HCC) cells were subcutaneously injected into flanks of NU/J mice. 12 days later the tumor size was about 50 mm^3 and C86 or vehicle treatment (10 mg/kg, i.p, daily injection) was started. […] The frequencies of the host (murine) DCs (CD45^+F4/80^−CD11C^+MHCII-high) and macrophages (CD45^+F4/80^+) are quantified in a bar graph. […] Shown are the representative FCM plot (histogram) and DC quantification (bar graph). […]
Monocytes were isolated from bone marrow of C57BL/6 mice using the Mouse BM Monocyte Isolation Kit (Miltenyi Biotec) according to manufacturer's instructions. Purity of monocyte was assessed by flow cytometry using CD11b, Ly6C, and Ly6G. […]

[2] = system: monocytes in Huh7 tumors; experiment: Differentiation of human monocytes injected into Huh7 tumors in NU/J mice; type: in vivo, mouse; settings: 10 mg/kg, i.p, daily
From the text: as §1
Monocytes were isolated (as described above) from mouse bone marrow of C57BL/6 mice and counted. […] Tumors were harvested at specified time points and analyzed by flow cytometry. […]

[3] = biological target: T1, Cyclooxygenase COX-1 (Homo sapiens, UniProt P23219); experiment: Safetyscreen: COX-1; type: biochemical; settings: read-out: % Inh. Cyclooxygenase COX-1
T1 construct: Eurofins Cerep Panlabs (contract panel)
T1 sequence (P23219 24-599): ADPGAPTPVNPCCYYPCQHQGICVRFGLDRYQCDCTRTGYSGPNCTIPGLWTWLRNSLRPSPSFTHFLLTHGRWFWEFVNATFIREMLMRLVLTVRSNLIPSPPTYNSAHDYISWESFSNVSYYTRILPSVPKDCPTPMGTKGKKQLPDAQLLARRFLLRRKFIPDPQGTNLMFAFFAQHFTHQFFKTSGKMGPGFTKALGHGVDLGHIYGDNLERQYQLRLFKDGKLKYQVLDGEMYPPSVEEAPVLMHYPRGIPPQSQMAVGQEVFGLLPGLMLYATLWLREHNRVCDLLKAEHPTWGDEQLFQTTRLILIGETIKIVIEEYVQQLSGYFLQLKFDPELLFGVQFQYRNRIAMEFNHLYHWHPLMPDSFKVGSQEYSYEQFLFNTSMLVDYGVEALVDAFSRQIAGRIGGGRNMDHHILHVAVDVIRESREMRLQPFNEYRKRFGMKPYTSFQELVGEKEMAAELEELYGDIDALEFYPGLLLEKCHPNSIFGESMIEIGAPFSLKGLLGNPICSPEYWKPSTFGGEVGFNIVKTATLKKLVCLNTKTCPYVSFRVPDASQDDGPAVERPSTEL

[4] = biological target: T2, Peptidase, CTSG (Cathepsin G) (Homo sapiens, UniProt P08311); experiment: Safetyscreen: Cathepsin G; type: biochemical; settings: read-out: % Inh. Peptidase, CTSG (Cathepsin G)
T2 construct: Eurofins Cerep Panlabs (contract panel)
T2 sequence (P08311 21-244): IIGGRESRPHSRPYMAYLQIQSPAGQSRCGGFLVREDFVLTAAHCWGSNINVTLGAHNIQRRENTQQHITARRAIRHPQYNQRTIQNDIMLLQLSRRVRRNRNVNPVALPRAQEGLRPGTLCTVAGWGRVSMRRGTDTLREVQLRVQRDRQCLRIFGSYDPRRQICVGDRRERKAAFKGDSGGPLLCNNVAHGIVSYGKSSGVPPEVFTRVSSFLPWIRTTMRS

[5] = system: Phosphodiesterase PDE3; experiment: Safetyscreen: PDE3; type: biochemical, human; settings: 10 μM
[6] = biological target: T3, Chemokine CXCR2 (IL-8RB) (Homo sapiens, UniProt P25025); experiment: Safetyscreen: CXCR2; type: binding; settings: read-out: % Inh. Chemokine CXCR2 (IL-8RB)
T3 construct: purchased Eurofins Cereps Panlabs
T3 sequence (P25025 whole entry): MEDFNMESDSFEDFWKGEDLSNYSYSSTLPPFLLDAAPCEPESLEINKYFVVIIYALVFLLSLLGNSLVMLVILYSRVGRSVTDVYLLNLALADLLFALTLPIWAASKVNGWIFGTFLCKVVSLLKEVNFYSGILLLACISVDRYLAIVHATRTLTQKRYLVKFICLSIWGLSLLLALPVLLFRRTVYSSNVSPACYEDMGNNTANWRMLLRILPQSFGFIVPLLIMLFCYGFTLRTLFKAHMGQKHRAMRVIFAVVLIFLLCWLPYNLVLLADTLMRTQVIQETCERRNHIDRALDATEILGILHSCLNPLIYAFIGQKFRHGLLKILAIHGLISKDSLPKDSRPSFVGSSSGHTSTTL

[7] = system: Glutamate, AMPA; experiment: Safetyscreen: Glutamate, AMPA; type: binding, rat; settings: 10 μM
[8] = system: Glutamate, NMDA, Agonism; experiment: Safetyscreen: NMDA, Agonism; type: binding, rat; settings: 10 μM
[9] = biological target: T4, Muscarinic M1 (Homo sapiens, UniProt P11229); experiment: Safetyscreen: Muscarinic M1; type: binding; settings: read-out: % Inh. Muscarinic M1
T4 construct: Eurofins Cereps Panlabs (contract panel)
T4 sequence (P11229 whole entry): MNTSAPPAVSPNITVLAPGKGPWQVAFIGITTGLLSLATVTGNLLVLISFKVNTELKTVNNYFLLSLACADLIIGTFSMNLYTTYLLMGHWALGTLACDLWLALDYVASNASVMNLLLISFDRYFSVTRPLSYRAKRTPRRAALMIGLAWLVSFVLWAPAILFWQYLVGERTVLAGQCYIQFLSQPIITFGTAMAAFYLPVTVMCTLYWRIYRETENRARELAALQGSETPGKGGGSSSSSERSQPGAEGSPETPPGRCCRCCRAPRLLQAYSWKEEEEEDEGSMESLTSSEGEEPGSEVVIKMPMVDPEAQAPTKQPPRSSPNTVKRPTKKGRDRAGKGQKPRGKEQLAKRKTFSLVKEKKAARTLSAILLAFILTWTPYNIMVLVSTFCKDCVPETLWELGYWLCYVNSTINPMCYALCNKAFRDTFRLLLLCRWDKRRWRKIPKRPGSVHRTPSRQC

[10] = biological target: T5, Opiate μ(OP3, MOP) (Homo sapiens, UniProt P35372); experiment: Safetyscreen: Opiate μ; type: binding; settings: read-out: % Inh. Opiate μ(OP3, MOP)
T5 construct: Eurofins Cereps Panlabs (contract panel)
T5 sequence (P35372 whole entry): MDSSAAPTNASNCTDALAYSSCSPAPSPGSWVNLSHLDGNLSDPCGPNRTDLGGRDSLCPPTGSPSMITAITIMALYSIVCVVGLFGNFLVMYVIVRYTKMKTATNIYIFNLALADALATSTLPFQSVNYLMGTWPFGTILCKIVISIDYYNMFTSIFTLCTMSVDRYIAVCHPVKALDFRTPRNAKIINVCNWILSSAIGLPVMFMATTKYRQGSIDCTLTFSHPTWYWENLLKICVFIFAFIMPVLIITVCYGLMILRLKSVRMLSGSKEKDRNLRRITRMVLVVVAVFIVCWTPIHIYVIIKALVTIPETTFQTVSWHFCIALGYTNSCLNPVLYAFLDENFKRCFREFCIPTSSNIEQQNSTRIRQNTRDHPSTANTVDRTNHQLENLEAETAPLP

[11] = biological target: T6, Serotonin (5-Hydroxytryptamine) 5-HT1B (Homo sapiens, UniProt P28222); experiment: Safetyscreen: 5-HT1B; type: binding; settings: read-out: % Inh. Serotonin (5-Hydroxytryptamine) 5-HT1B
T6 construct: Eurofins Cereps Panlabs (contract panel)
T6 sequence (P28222 whole entry): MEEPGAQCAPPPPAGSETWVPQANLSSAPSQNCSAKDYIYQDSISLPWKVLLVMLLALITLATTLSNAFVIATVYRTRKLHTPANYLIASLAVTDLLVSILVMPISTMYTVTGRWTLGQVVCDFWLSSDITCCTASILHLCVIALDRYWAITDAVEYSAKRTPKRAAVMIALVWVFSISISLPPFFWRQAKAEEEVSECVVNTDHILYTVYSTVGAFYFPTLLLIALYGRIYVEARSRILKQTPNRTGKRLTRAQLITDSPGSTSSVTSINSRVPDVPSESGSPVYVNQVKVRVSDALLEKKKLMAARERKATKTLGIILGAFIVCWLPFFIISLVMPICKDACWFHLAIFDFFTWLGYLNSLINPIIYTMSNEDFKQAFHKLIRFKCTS

[12] = biological target: T7, Serotonin (5-Hydroxytryptamine) 5-HT2C (Homo sapiens, UniProt P28335); experiment: Safetyscreen: 5-HT2C; type: binding; settings: read-out: % Inh. Serotonin (5-Hydroxytryptamine) 5-HT2C
T7 construct: Eurofins Cereps Panlabs (contract panel)
T7 sequence (P28335 33-458): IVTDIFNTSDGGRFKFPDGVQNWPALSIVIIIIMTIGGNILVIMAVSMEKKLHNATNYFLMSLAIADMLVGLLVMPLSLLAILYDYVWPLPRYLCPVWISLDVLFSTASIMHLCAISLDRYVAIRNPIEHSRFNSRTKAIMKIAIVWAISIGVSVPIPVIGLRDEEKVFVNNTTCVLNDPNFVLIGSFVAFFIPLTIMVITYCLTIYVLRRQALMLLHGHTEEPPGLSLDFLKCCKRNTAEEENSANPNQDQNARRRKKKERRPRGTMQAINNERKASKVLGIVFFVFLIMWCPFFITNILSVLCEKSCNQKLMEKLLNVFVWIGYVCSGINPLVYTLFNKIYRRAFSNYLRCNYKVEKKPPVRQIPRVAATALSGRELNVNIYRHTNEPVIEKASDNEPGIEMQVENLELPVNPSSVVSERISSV

[13] = biological target: T8, Transporter, Dopamine (DAT) (Homo sapiens, UniProt Q01959); experiment: Safetyscreen: DAT; type: binding; settings: read-out: % Inh. Transporter, Dopamine (DAT)
T8 construct: purchased Eurofins Cereps Panlabs
T8 sequence (Q01959 whole entry): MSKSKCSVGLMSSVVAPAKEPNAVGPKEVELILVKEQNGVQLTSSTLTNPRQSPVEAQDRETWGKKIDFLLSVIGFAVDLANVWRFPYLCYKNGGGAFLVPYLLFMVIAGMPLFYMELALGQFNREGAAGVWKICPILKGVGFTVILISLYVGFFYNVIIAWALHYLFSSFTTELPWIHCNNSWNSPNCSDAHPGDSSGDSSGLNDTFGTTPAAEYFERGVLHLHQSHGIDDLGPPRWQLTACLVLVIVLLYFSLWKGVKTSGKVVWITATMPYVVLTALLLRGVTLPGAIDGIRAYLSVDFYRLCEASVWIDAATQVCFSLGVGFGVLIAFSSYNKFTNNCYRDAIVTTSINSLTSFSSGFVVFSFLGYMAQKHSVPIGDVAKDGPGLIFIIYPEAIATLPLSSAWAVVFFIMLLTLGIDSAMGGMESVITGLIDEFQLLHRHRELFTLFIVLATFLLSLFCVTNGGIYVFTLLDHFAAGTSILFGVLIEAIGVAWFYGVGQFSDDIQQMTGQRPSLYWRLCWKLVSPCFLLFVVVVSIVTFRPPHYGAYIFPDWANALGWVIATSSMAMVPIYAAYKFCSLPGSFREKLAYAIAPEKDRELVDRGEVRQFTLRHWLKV

[14] = biological target: T9, Transporter, Serotonin (5-Hydroxytryptamine) (SERT) (Homo sapiens, UniProt P31645); experiment: Safetyscreen: SERT; type: binding; settings: read-out: % Inh. Transporter, Serotonin (5-Hydroxytryptamine) (SERT)
T9 construct: purchased Eurofins Cereps Panlabs
T9 sequence (P31645 whole entry): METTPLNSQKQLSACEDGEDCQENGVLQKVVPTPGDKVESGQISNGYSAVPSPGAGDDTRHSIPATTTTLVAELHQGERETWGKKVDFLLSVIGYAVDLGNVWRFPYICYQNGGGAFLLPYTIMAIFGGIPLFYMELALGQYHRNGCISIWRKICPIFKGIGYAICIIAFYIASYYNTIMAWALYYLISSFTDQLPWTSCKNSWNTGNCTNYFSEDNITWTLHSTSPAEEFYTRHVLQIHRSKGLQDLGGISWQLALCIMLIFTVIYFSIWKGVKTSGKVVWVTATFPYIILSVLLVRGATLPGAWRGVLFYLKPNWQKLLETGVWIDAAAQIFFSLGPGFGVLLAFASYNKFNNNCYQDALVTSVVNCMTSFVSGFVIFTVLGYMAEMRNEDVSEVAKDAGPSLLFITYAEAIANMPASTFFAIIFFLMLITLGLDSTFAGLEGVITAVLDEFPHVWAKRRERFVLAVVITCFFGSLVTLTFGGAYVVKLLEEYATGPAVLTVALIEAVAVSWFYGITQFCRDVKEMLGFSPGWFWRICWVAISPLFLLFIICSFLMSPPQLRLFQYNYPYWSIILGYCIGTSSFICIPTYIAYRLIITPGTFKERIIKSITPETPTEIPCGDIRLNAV

## CS(=O)(=O)N1CCN(C(=O)c2cnc3ccc(F)cc3c2N2CCC(C#N)(c3ccccc3)CC2)CC1 [Compound C-86, 1-(6-fluoro-3-(4-(methylsulfonyl)piperazine-1-carbonyl)quinolin-4-yl)-4-phenylpiperidine-4-carbonitrile]
[1]
  suppression of DC differentiation by HCC cells or CM: reversed
[2]
  frequency of host (murine) DCs and macrophages in the TME: increased frequency of DCs and reduced frequency of macrophages
[2]; five days after monocyte injection
  DC differentiation from transplanted human monocytes: increased DC differentiation
[3]
  inhibition at 10 µM: 6%
[4]
  inhibition at 10 µM: 0%
[5]
  % Inh. Phosphodiesterase PDE3: −23%
[6]
  inhibition at 10 µM: 8%
[7]
  % Inh. Glutamate, AMPA: 0%
[8]
  % Inh. Glutamate, NMDA, Agonism: 2%
[9]
  inhibition at 10 µM: 3%
[10]
  inhibition at 10 µM: 19%
[11]
  inhibition at 10 µM: -21%
[12]
  inhibition at 10 µM: 22%
[13]
  inhibition at 10 µM: 8%
[14]
  inhibition at 10 µM: 17%
